Experimental data: ChEMBL document CHEMBL1201862, “PubChem BioAssay data set” (2004)
Activity calls are given as the source filed them.

Tests used:
Beta-galactosidase = Beta-galactosidase (Escherichia coli, UniProt Q8VNN2); experiment: Dose response counterscreen for EBI2 assay utilizing the enzyme, b-galactosidase.; assay type: functional
[1] = target: Matrix metalloproteinase-14 (Homo sapiens, UniProt P50281); experiment: Dose Response confirmation of uHTS hits for a small molecule inhibitors of MT1-MMP activation in a fluorescence assay set 1.; assay type: functional
[2] = target: 5-hydroxytryptamine receptor 2A (Mus musculus, UniProt P35363); assay type: functional, cell-based;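 also: CHO-K1 cells with tagged receptor and beta-arrestin; agonist potency measured as compound-induced activation of the receptor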
Mu-type opioid receptor = Mu-type opioid receptor (Homo sapiens, UniProt P35372); assay type: functional, cell-based;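 also: U2OS cells with beta-arrestin recruitment to OPRM1 by beta-gal complementation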
[3] = target: T1, Methionyl-tRNA synthetase, putative (Trypanosoma brucei brucei, UniProt Q38C91); assay type: functional, Trypanosoma brucei brucei strain 927/4 GUTat10.1
T1 sequence (Q38C91 whole entry): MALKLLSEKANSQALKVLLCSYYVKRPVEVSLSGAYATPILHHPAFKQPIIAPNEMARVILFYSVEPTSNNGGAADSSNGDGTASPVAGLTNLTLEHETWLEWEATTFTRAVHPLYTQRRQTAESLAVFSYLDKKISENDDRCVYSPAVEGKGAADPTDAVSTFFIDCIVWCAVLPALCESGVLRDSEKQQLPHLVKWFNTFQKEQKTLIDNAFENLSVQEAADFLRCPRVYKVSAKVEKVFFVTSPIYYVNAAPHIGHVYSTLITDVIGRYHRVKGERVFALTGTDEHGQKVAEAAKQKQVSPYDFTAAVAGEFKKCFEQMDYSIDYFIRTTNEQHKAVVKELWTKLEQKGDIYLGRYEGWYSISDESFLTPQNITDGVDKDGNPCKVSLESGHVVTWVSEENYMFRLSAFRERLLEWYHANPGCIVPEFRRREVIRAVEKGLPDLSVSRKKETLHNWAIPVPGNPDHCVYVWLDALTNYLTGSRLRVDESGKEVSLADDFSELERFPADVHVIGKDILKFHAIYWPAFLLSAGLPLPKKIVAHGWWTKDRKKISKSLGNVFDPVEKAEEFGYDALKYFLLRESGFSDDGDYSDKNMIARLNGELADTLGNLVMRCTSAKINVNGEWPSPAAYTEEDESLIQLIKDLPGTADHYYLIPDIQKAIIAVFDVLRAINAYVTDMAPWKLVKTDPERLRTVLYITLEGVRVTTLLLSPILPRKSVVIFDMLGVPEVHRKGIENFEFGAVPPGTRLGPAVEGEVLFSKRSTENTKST

[4] = Counterscreen for inhibitors of Trypanosoma brucei methionyl tRNA synthetase (MetRS): Luminescence-based cell-based high throughput dose response assay to identify compounds that are cytotoxic to Jurkat human T lymphocyte cells.; assay type: functional
[5] = target: T1, Methionyl-tRNA synthetase, putative; assay type: functional, Trypanosoma brucei brucei strain 927/4 GUTat10.1; remark: listed apart in the source
[6] = A549 cell cytotoxicity, dose response, cytotoxicity control, plate reader, cherry-pick, antagonist series (AID 743412); assay type: functional, cell-based
[7] = HepG2 cell cytotoxicity, dose response, cytotoxicity control, plate reader, cherry-pick, antagonist series (AID 743416); assay type: functional, cell-based
[8] = LGR2 antagonists, dose response, cell-based, HEK293, CRE-luciferase reporter, cherry pick, set 2 (AID 743343); assay type: functional;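 also: transfected cells were stimulated with diluted bursicon conditioned medium after compound addition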
[9] = HEK293 cell cytotoxicity, dose response, cytotoxicity control, plate reader, cherry-picked samples (AID 743446); assay type: functional, cell-based
[10] = MC4R antagonists, dose response, counter-screen for LGR2 antagonist project, cell-based, plate reader, cherry pick (AID 743444); assay type: functional;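 also: transfected HEK 293 cells stimulated with alpha-MSH peptide; potency of inhibitors of the alpha-MSH evoked signal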
Major prion protein = Major prion protein (Homo sapiens, UniProt P04156); assay type: functional, cell-based
cells [11] = experiment: cells
[12] = CEM21 lymphoblast cell cytotoxicity, dose response, cytotoxicity control for viral fusion inhibitor project, CellTiter-Glo luminescence, cherry-picked (AID 652042); assay type: functional, cell-based;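 also: potency for signal decrease meaning cytotoxicity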
[13] = ZM109 Env clade C HIV-1 fusion inhibitors, dose response, HeLa effector, CEM target cells, luciferase, cherry-pick (AID 652058); assay type: functional, cell-based
Galanin receptor type 3 = Galanin receptor type 3 (Homo sapiens, UniProt O60755); experiment: Fluorescence-based cell-based primary high throughput dose response assay to identify antagonists of the Galanin Receptor 3 (GalR3).; assay type: functional
HEK293 [14] = experiment: cells; assay type: functional, cell-based; conditions: Homo sapiens
HEK293 [15] = experiment: NOD1 signaling inhibitors, primary screen, cell-based, luminescence, uHTS (AID 1578); assay type: functional; conditions: Homo sapiens
HEK293 [16] = experiment: NOD2 signaling inhibitors in MDP-stimulated cells, cell-based, uHTS, luminescence (AID 2001); assay type: functional; conditions: Homo sapiens
cells [17] = assay type: functional, cell-based; conditions: HEK-CNG
HEK293 [18] = experiment: cells; assay type: functional, cell-based; conditions: Homo sapiens; remark: listed apart in the source
[19] = target: T2, Small ubiquitin-related modifier 1 (Homo sapiens, UniProt P63165); experiment: inhibitors of SUMO1 peptide binding, dose response, biochemical, fluorescence polarization, uHTS hits (AID 624382); assay type: functional; conditions: read-out: IC50_Mean
[20] = non-specific cell cytotoxicity, dose response, cytotoxicity control for PAX8 inhibitor project, plate reader, dry powder samples (AID 743021); assay type: functional, cell-based
[21] = target: T2, Small ubiquitin-related modifier 1; experiment: inhibitors of SUMO1 partner interactions, dose response, biochemical, FRET (AID 624383); assay type: functional; conditions: read-out: IC50_Mean
Paired box protein Pax-8 = Paired box protein Pax-8 (Homo sapiens, UniProt Q06710); experiment: inhibitors of PAX8-driven TPO luciferase reporter, dose response, RMG-I cells, cherry-pick (AID 687027); assay type: functional, cell-based;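 also: luciferase reporter driven by Pax8 target thyroperoxidase promoter measured by SteadyGlo luminescence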
[22] = inhibitors of PGC1a acetylation in cells, dose response, cell-based, cherry-picked samples (AID 720514); assay type: functional;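 also: potency may reflect raised or lowered acetylation signal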
[23] = HepG2 cell cytotoxicity, dose response, cytotoxicity control, cherry-picked samples (AID 1159577); assay type: functional, cell-based
[24] = cytotoxicity in OVCAR8 ovarian cancer cells, dose response, PAX8 project, cell-based, plate reader, dry powder samples (AID 743197); assay type: functional; conditions: OVCAR-8
[25] = P. falciparum Dd2 growth inhibitors, dose response, SYBR Green, cherry-picked samples (AID 1159567); assay type: functional, cell-based
[26] = IGROV1 ovarian cancer cell cytotoxicity, dose response, PAX8 inhibitor project, plate reader, dry powder samples (AID 743043); assay type: functional, cell-based; conditions: IGROV-1
[27] = C. albicans growth with fluconazole, confirmation, fluorescence, retest (AID 2467); assay type: functional, cell-based
[28] = NIH-3T3 fibroblast cytotoxicity, dose response, cytotoxicity control, cell-based, fluorescence, Alamar Blue, secondary assay (AID 2327); assay type: functional;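 also: NIH-3T3 mouse fibroblasts cultured with fluconazole at 8 µg/mL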

For CCOC(=O)N1CCN(C(=O)COc2ccc(Br)cc2)CC1, which IC50 (Beta-galactosidase) is on record?
The IC50 was > 80 µM (inactive).

For CN1C(=O)/C(=C2/C=Cc3ccccc3N2CCCS(=O)(=O)O)SC1=S, which IC50 [1] is on record?
The IC50 was > 80 µM (inactive).

Which EC50 [2] does the source give for Cc1ccc(NC(=O)CN2CCN(c3ccccn3)CC2)cc1S(=O)(=O)N(C)C here?
Its EC50 is 0.685 µM (active).

And the EC50 (Mu-type opioid receptor)?
Its EC50 is 92.5 µM (inactive).

For Cc1nnc(NC(=O)CSc2n[nH]c3c4cc(Br)ccc4nc-3n2)s1, which IC50 [3] is on record?
The IC50 was 3.87 µM (active).

What about the IC50 [4] of the same compound?
Its IC50 is 83.3 µM (inactive).

And the IC50 [5]?
The IC50 was 1.36 µM (active).

What does the source list for COc1cccc2c1C(=O)O/C2=C/c1ccc2c(c1)OCO2?
AC50 [6]: > 52 µM (inactive); AC50 [7]: > 52 µM (inactive); AC50 [8]: 2.1 µM (active); AC50 [9]: > 52 µM (inactive); AC50 [10]: 2.69 µM (active)

Which results are given for CCC(Sc1ccc2nnc(-c3ccc(F)cc3)n2n1)C(=O)O (stereo not drawn)?
IC50 (Major prion protein): 13 µM (inactive); IC50 (cells [11]): > 138 µM (inactive)

Which AC50 [12] does the source give for CC1(C)N=C(N)N=C(N)N1CCCCc1ccccc1 here?
Its AC50 is 1.63 µM (active).

And the AC50 [13]?
Its AC50 is 1.34 µM (active).

Which results are given for Cc1oc(-c2ccc(Cl)cc2)nc1CSCC(=O)NC1CCN(Cc2ccccc2)CC1?
IC50 (Galanin receptor type 3): 1.29 µM (active); IC50 (HEK293 [14]): 1.68 µM (active); EC50 (HEK293 [15]): 2.62 µM (active); IC50 (HEK293 [16]): 3.08 µM (active); EC50 (cells [17]): > 29.9 µM (inactive); IC50 (HEK293 [18]): 9.78 µM (active)

Which results are given for O=C(NCc1cc(C(F)(F)F)ccc1Cl)c1cccc2c1C(=O)c1ccc(N3CCC(N4CCCCC4)CC3)cc1S2(=O)=O?
IC50 [19]: > 66.6 µM (inactive); AC50 [20]: 19.7 µM (active); IC50 [21]: 11.1 µM (active); AC50 (Paired box protein Pax-8): 11.7 µM (active)

For COc1ccc2c3c(n(C)c2c1)[C@H](CO)NCC31CCN(Cc2cc(-c3ccccc3)on2)CC1, which AC50 [20] is on record?
Its AC50 is 43 µM (active).

What about the AC50 [22] of the same compound?
Its AC50 is 12.9 µM (active).

And the AC50 [23]?
The AC50 was 7.77 µM (active).

What about the AC50 [24] of the same compound?
Its AC50 is 24.1 µM (active).

And the AC50 [25]?
The AC50 was 1.64 µM (active).

What about the AC50 [26] of the same compound?
The AC50 was 25.1 µM (active).

What about the AC50 (Paired box protein Pax-8) of the same compound?
The AC50 was 7.96 µM (active).

With Cc1ccc(SCCC(=O)N/N=C/c2ccccc2O)cc1 as the compound, how does the IC50 [3] read?
The IC50 was 4.39 µM (active).

And the EC50 [27]?
Its EC50 is 4.74 µM (active).

What about the IC50 [4] of the same compound?
The IC50 was 16.1 µM (inactive).

What about the EC50 [28] of the same compound?
The EC50 was > 160 µM (inactive).

And the IC50 [5]?
The IC50 was 4.49 µM (active).
